Test results reported in patent US10905757B2, “Cross-reactive T cell epitopes of HIV, SIV, and FIV for vaccines in humans and cats” (priority 2012, dated 2021).
Entries after “also recorded” stand apart in the source; their conditions may differ. Marks after values point to notes of the source that are not given here. Ends that are not written are not given here.

What was measured:
Type in all cases: cell-based, human
[1] = test system: CD3+CD8+ T cells from HIV+ subjects; assay: CFSE-proliferation, CD3+CD8+ T cells from HIV+ subjects; conditions: for CD8^+ T Proliferation (positive/total): positive responses over total tested, F3 responders (H3 responders for H3-3)
Description: (§1) 2×10^5-5×10^5 CFSE labeled PBMCs were incubated with 15-20 μg of peptides in 600 μL of RPMI media with 10% FBS for 5 days at 37° C. (5% CO2). After harvesting, they were labeled with allophycocyanin (APC), APC-H7, and Pacific Blue labeled monoclonal antibodies (MAb) to human CD3, CD4, and CD8, respectively and analyzed for T-cell proliferation by flow cytometry using BD LSRII (BD Biosciences). The proliferating CD4^+ or CD8^+ T cell populations were defined from the CD3^+ cell population as either CD3^+CD8^+ or CD3^+CD4^+T cells (mutually exclusive) with low CFSE (CFSE^low) staining.
(§2) Flow cytometry (FACS) for carboxyfluoresein diacetate succinimide ester (CFSE)-proliferation and intracellular cytotoxin staining (ICS). The CFSE-proliferation analysis was performed on PBMC according to the manufacturer's protocol (Invitrogen, Carlsbad, Calif.) and processed as previously described (Lichterfeld et al. (2004)). Modifications consisted of using 2.0-5.0×10^5 CFSE-labeled cells stimulated for 5 days (37° C., 5% CO^2) with 30 μg/well of total peptides in a pool (15 μg/well for individual peptide, Table 10) or 5 μg/mL PHA in AIM V medium containing 25 μg/mL of gentamycin and 10% heat-inactivated human serum. Subsequently these cells were harvested and labeled with the LIVE/DEAD fixable yellow dye (Invitrogen) and then treated 5 min with anti-CD16/CD32 antibody (Biolegend, San Diego, Calif.) for blocking non-specific binding before phenotype-specific antibodies. The following antibodies were used for the CFSE-proliferation analysis: anti-CD4 APC, anti-CD3 APC-H7, and anti-CD8 Pacific Blue (BD Biosciences, San Jose, Calif.).
(§3) In both analyses, 1.0-2.0×10^4 cells were fixed in phosphate-buffered saline (PBS) containing 2% paraformaldehyde and analyzed on BD LSRII using […] Software (BD Biosciences), with a positive threshold of 3% CFSE^low for CFSE-proliferation and 1% T cells expressing cytotoxin for ICS. The final value for each subject was derived after subtraction of the subject's medium control and the average value of peptide-stimulated cells from uninfected control subjects.
(§4) Flow cytometry (FACS) for measuring CFSE-proliferation and intracellular cytokine staining (ICS). Carboxyfluorescein diacetate succinimide ester (CFSE)-proliferation analysis was performed according to the manufacturer's protocol (Invitrogen) and processed as previously described (Lichterfeld et al. 2004) using the following modification: 2.5-5.0×10^5 CFSE-labeled PBMC stimulated for 4-5 days (37° C., 5% CO2) with 15-30 μg of peptides in culture media (AIM V medium, 25 μg/mL gentamycin, and 10% heat-inactivated fetal bovine serum). The ICS analysis was performed as previously described (Horton et al. 2007; Pattacini et al. 2012).
(§5) The antibodies used for the proliferation analysis consisted of anti-CD4 allophycocyanin (APC) anti-CD3 APC-H7, and anti-CD8 Pacific Blue, and those for ICS were anti-CD3 APC-H7, anti-CD4 BD Horizon V450, anti-CD8 FITC, anti-granzyme B (GrzB) Alexa 700, anti-granzyme A (GrzA) PE (BD Biosciences, Cat #555349, 560176, 558207, 560345, 555366, 560213, 558904), and anti-perforin PerCP (Abcam, Cat #ab86319). Both analyses were performed with BD LSRII and […]™ Software (BD Biosciences), using a positive threshold of >1% CFSE^low for CFSE-proliferation except for ICS studies with threshold of >0.1% T cells expressing cytotoxin. The final value for each subject was derived after subtracting the result of each HIV^+ subject with the media control followed by subtraction with the average response of the media-control subtracted HIV^− subjects.

PBMC from HIV+ subjects = assay: IFNγ ELISpot, PBMC from HIV+ subjects; conditions: for IFNγ (positive/total): positive responses over total tested, F3 responders (H3 responders for H3-3)
Description: 1.0×10^5-2.0×10^5 PBMCs were stimulated with peptides (15 μg peptide/well) in ELISpot plates for 18 hours in AIMS V medium (at 10% normal human serum). The spots were counted with an ELISpot reader and adjusted to spot forming units (SFU) per 10^6 cells.
Positive reactivity was defined at ≥70 SFU/10^6 cells after subtracting the background derived from non-specific peptide control or media control, and the average of 3 HIV-1 negative controls (<30 SFU/10^6 cells).
ELISpot assays. Enzyme-linked immunosorbent spot assays (ELISpot) for IFNγ (R&D Systems, Minneapolis, Minn.) were performed with AIM V medium containing 5% heat-inactivated (56° C., 30 min) human serum as previously described (Abbott et al. (2012)). The PBMC from HIV+ subjects were stimulated with either peptide pool (4-5 consecutive peptides per pool at 5 μg per peptide) or individual peptide (15 μg/well). The peptides were 11-16 aa in length with 8-10 aa overlap. The results were analyzed with an ELISpot reader (MVS Pacific LLC, Minneapolis, Minn.) and adjusted to spot forming units (SFU) per 10^6 cells, after subtraction of the average medium control for each subject. The PBMC from HIV+ subjects were stimulated with T-cell mitogen, phytohemaglutinin A (PHA, 5 μg/mL), as positive control. At a positive threshold of 70 SFU, HIV− subjects had no substantial IFNγ responses (>50 SFU) to HIV and FIV peptide pools.
ELISpot assays. Human enzyme-linked immunosorbent spot assays (ELISpot) (R&D Systems, Cat #XEL285) which measure IFNγ production were performed (Abbott et al. 2011). The positive threshold for human IFNγ responses was >50 spot forming units (SFU)/10^6 cells. The final value for each subject was derived after subtracting the result of each HIV^+ subject with the media control followed by subtraction with the average response of the HIV^− subjects which was rarely more than 10 SFU.

[2] = test system: CD4+ or CD8+ T cells from HIV+ subjects; assay: Intracellular cytotoxin staining (ICS), CD4+ or CD8+ T cells from HIV+ responders; conditions: for cytotoxin and CD107a expression in CD4+ and CD8+ T cells (in words): p24 peptides
Description: Briefly, 1×10^6PBMCs (freshly isolated) are stimulated with 20 μg of peptides for 6 hours in a total volume of 200 μL in a 96-well plate in presence of Golgi transport inhibitor (37° C., 5% CO2). […] Cells were stained with the LIVE/DEAD® fixable yellow dye (Invitrogen, Eugene, Oreg.). […] The flow cytometry data is collected using BD LSRII and analyzed with the FACS DIVA software.
The cells were subsequently fixed and permeabilized with Cytofix/Cytoperm solution (BD Biosciences) before reaction with anti-cytotoxin antibodies. The antibodies consisted of anti-CD3 APC-H7, anti-CD4 BD Horizon V450, and anti-CD8 FITC followed by anti-GrzB Alexa 700 and anti-GrzA PE (all from BD Biosciences), and anti-perforin PerCP (Abcam, Boston, Mass.).
as §3
Flow cytometry (FACS) for measuring CFSE-proliferation and intracellular cytokine staining (ICS).
Both analyses were performed with BD LSRII and […]™ Software (BD Biosciences), using a positive threshold of >1% CFSE^low for CFSE-proliferation except for ICS studies with threshold of >0.1% T cells expressing cytotoxin.

[3] = test system: CD3+CD4+ T cells from HIV+ subjects; assay: CFSE-proliferation, CD3+CD4+ T cells from HIV+ subjects
Description: as §1, §2, §3, §4, §5

[4] = test system: CD8+ T cells from HIV+ subjects; assay: Intracellular cytotoxin staining (ICS: perforin, GrzA, GrzB, CD107a), CD8+ T cells from HIV+ subjects; set-up: key to CD8^+ T-cell cytotoxins (8C): positive (+); negative (−) response; inhibitory (↓); not done (n)
Description: (§6) Briefly, 1×10^6PBMCs (freshly isolated) are stimulated with 20 μg of peptides for 6 hours in a total volume of 200 μL in a 96-well plate in presence of Golgi transport inhibitor (37° C., 5% CO2). The cells are processed as previously described (Horton et al. (2007)). Cells were stained with the LIVE/DEAD® fixable yellow dye (Invitrogen, Eugene, Oreg.). The monoclonal antibodies fluorochome-conjugated to human cytokines used are: APC-H7 to CD3 (clone SK7); BD Horizon V450 to CD4 (clone RPA-T4); Qdot to CD8 (clone 3B5); PE-cy7 to IFN-γ (clone 4S.B3); APC to IL-2 (clone MQ1-17H12) PerCP to perforin (clone B-D48); Alexa F1.700 to granzyme-B (clone GB11) and PE to granzyme-A (clone CB9). The flow cytometry data is collected using BD LSRII and analyzed with the FACS DIVA software.
(§7) The ICS analysis (Horton et al. (2007)) involved stimulating 0.5-1.0×10^6 freshly isolated PBMC for 6 h with the same peptide stimulant and culture conditions as the proliferation analysis in the presence of 1 μg/mL of Golgi transport inhibitor and monensin followed by labeling with LIVE/DEAD fixable yellow dye and then treatment with anti-CD16/CD32 antibody and T-cell phenotypic antibodies. The cells were subsequently fixed and permeabilized with Cytofix/Cytoperm solution (BD Biosciences) before reaction with anti-cytotoxin antibodies. The antibodies consisted of anti-CD3 APC-H7, anti-CD4 BD Horizon V450, and anti-CD8 FITC followed by anti-GrzB Alexa 700 and anti-GrzA PE (all from BD Biosciences), and anti-perforin PerCP (Abcam, Boston, Mass.).
as §3, §4, §5

[5] = test system: CD4+ T cells from HIV+ subjects; assay: Intracellular cytotoxin staining (ICS), CD4+ T cells from HIV+ subjects; set-up: key to CD4^+ T-cell cytotoxins (4C): positive (+); negative (−) response; inhibitory (↓); not done (n); conditions: HIV^+ subjects compared to HIV^− control group
Description: as §6, §7, §3, §4, §5

[6] = average positive values, responders to Fp9 or Fp14 peptide pools
[7] = responders to Fp9 or Fp14 peptide pools
[8] = responders/tested, small 9-13mer peptides, yr 4, responders to Fp9 or Fp14 pool via both proliferation and IFNγ
[9] = small 9-13mer peptides, yr 4, responders to Fp9 or Fp14 pool via both proliferation and IFNγ

Substance: FIV F3-3m1 (KKKDSGKWRMLIDFR)
- CD8^+ T Proliferation (positive/total) [1]: 1/5
- IFNγ (positive/total) (PBMC from HIV+ subjects): 0/9

Substance: FIV F3-3m2 (KKKDSGKWRMLIDFRV)
- CD8^+ T Proliferation (positive/total) [1]: 2/5
- IFNγ (positive/total) (PBMC from HIV+ subjects): 7/9

Substance: FIV F3-3m3 (KKKSGKWRMLVDFRV)
- CD8^+ T Proliferation (positive/total) [1]: 0/5
- IFNγ (positive/total) (PBMC from HIV+ subjects): 0/9

Substance: FIV F3-3m4 (KKKSTKWRKLIDFRV)
- CD8^+ T Proliferation (positive/total) [1]: 0/5
- IFNγ (positive/total) (PBMC from HIV+ subjects): 0/9

Substance: FIV F3-3m5 (KKKSGKWRKLIDFRV)
- CD8^+ T Proliferation (positive/total) [1]: 0/5
- IFNγ (positive/total) (PBMC from HIV+ subjects): 0/9

Substance: FIV F3-3m6 (KKKSTKWRMLIDFRV)
- CD8^+ T Proliferation (positive/total) [1]: 2/5
- IFNγ (positive/total) (PBMC from HIV+ subjects): 7/9

Substance: KKKDSTKWRKLVDFR [H3-3]
- IFNγ response of H3 responders retested (PBMC from HIV+ subjects; three H3 responders tested on or after the second year): 0/3

Substance: KLYLKQSLSI [Fp14-3/4f]
- (magnitude) CD8 Proliferation [1, 6]: high (high when >30 CSFE)
- CD8+ T-cell proliferation response of HIV+ subjects (in words) ([1]; p24 pools and peptides): high
- Responder Frequency in %, CD8 Proliferation [1, 7]: 100%
- CD8^+ T-cell Responder Frequency [1, 8]: 10/10
- CD8^+ T-cell Responder Frequency (%) [1, 9]: (100) ^d %
- (magnitude) IFNγ (PBMC from HIV+ subjects; [6]): low (low when the frequency of response is <15% CFSE or <125 SFU)
- IFNγ response of HIV+ subjects (in words) (PBMC from HIV+ subjects; p24 pools and peptides): low
- Responder Frequency in %, IFNγ (PBMC from HIV+ subjects; [7]): 40%
- cytotoxin and CD107a expression in CD4+ and CD8+ T cells (in words) [2]: high frequency of cytotoxin expression; also recorded: high cytotoxin and CD107a expression
- Cytotoxins [2, 7]: High Cytotoxins (The cytotoxin result is considered high when four or five subjects express one or more cytotoxins in the CD8^+ T cells)
- CD4+ T-cell proliferation response of HIV+ subjects (in words) [3]: high
- (magnitude) CD4 Proliferation [3, 6]: low (The average positive values are considered low when the frequency of response is <15% CFSE)
- Responder Frequency in %, CD4 Proliferation [3, 7]: 60%
- CD4^+ T-cell Responder Frequency [3, 8]: 6/10
- CD4^+ T-cell Responder Frequency (%) [3, 9]: (60) ^d %

Substance: KLYLKQSLSIANA [Fp14-4]
- cytotoxin expression / CTL-associated activity in CD8+ T cells (in words) [4]: highest frequency and levels
- CD8^+ T-cell cytotoxins (8C) ([4]; HIV^+ subjects compared to HIV^− control group): +
- HIV+ subjects whose CD8+ T cells responded with one or more cytotoxins ([4]; five HIV+ subjects, individual 13-15mer peptides): five
- cytotoxin and CD107a expression in CD4+ and CD8+ T cells (in words) [2]: high frequency of cytotoxin expression
- CD4^+ T-cell cytotoxins (4C) [5]: +
